Several values for one entry are separate records, joined by “and”; a condition that tells them apart may be missing. Identical values can stand only once. Like-named read-outs stand apart in the source and are kept apart here.
Assay: Plasma pharmacokinetics after oral multi-dose anatabine polacrilex
Format: in vivo, Sprague-Dawley rats
Conditions: for Anatabine Concentration in rat plasma: dose 2 mg/kg; for Avg. Conc. of anatabine in plasma: dose group 2, female; for concentration at 30 min / concentration at 60 min / concentration at 235 min / concentration at 270 min / concentration at 300 min / concentration at 475 min / concentration at 540 min / concentration at 600 min / concentration at 720 min / Tmax / half-life: Sprague-Dawley, rat, plasma; for concentration at 30 min / concentration at 60 min / concentration at 235 min / concentration at 270 min / concentration at 300 min / concentration at 475 min / concentration at 540 min / concentration at 600 min / concentration at 720 min: oral; for Tmax / half-life: po; for half-life: mean
Description: This study consisted of two groups of 8 animals each, 4 males and 4 females.
Two formulations were prepared; one for each of the two treatment groups. The test compound was formulated for each treatment group just prior to the first dose administration and constantly stirred until dosing was completed (Table 37). Four aliquots of each dose level formulation were collected and stored at −80° C.
The animals were weighed prior to dosing and received three doses p.o. of test compound at a volume of 5 mL/kg. Blood was collected via the venus plexus (retro-orbital) into tubes containing (K2) EDTA. No more than 0.5 mL was collected per time point.
Plasma was separated as per package instructions for MICROTAINER® brand collection tubes (3 minutes, 2000×g). Plasma was decanted into microfuge tubes and stored at −80° C. Remaining test compound was placed at −80° C.
Sample preparation. Plasma samples were treated with three volumes of methanol containing internal standard at 1 μM (R,S)-Antabine-2,4,5,6-d4), incubated 10 min at 4° C., and centrifuged. The amount of the test agent in the supernatant was determined by LC/MS/MS.
Analysis. Samples were analyzed by LC/MS/MS using an Agilent 6410 mass spectrometer coupled with an Agilent 1200 high pressure liquid chromatography (HPLC) and a CTC PAL chilled autosampler, all controlled by MassHunter software (Agilent). After separation on a Hydrophilic interaction liquid chromatography (HILIC) HPLC column (Sepax) using an acetonitrile-ammonium acetate/acetic acid gradient system, peaks were analyzed by mass spectrometry (MS) using ESI ionization in multiple reaction monitoring (MRM) mode. MassHunter software was used to calculate the concentration of the test compounds in samples from the peak area using the appropriate calibration curves.
Calibration samples. Calibration curves were determined in rat plasma. Calibration samples were prepared by diluting a 50× stock solution of the test compound in PBS with blank matrix to the appropriate concentration and these samples were prepared as described above in the sample preparation.
Data Analysis. Descriptive statistics were calculated for all pharmacokinetic parameters. Elimination half-lives (t1/2) were calculated by linear regression of logarithmically transformed plasma concentration data for each period between doses and following the final dose.
Total areas under the plasma concentration curves (AUC) and under the first moment curves (AUMC) were calculated using linear trapezoidal summation across all concentration time points as well as for intervals between each dose administration and following the final dose. […] Mean absorption times (MAT) were calculated according to the following relation: […]
where MRT represents the mean residence time. This was calculated from the mean residence times.
The statistical comparison of parameters between male and female animals was made using a two-tailed, unpaired, t-test with a 95 percent confidence interval. Repeated-measures analysis of variance (ANOVA) was used for multiple comparisons of Cp, max involving successive determinations on the same group of animals.

[1] = females, 6.0 mg/kg BW group, anatabine polacrilex p.o.

Structure (SMILES): C1=CCC(c2cccnc2)NC1 (racemic) [Anatabine, 1,2,3,6-tetrahydro-[2,3′]bipyridinyl]
- Anatabine Concentration in rat plasma (female, 270 min, individual animals 4A-4D): 324 ng/mL and 350 ng/mL
- Anatabine Concentration in rat plasma (female, 300 min, individual animals 4A-4D): 216 ng/mL and 97 ng/mL and 191 ng/mL and 414 ng/mL
- Anatabine Concentration in rat plasma (female, 475 min, individual animals 4A-4D): 219 ng/mL and 178 ng/mL and 179 ng/mL
- Anatabine Concentration in rat plasma (female, 540 min, individual animals 4A-4D): 231 ng/mL and 314 ng/mL and 369 ng/mL and 474 ng/mL
- Anatabine Concentration in rat plasma (female, 600 min, individual animals 4A-4D): 197 ng/mL and 207 ng/mL and 480 ng/mL and 288 ng/mL
- Anatabine Concentration in rat plasma (female, 720 min, individual animals 4A-4D): 165 ng/mL and 217 ng/mL
- Anatabine Concentration in rat plasma (male, 235 min, individual animals 3A-3D): 46 ng/mL and 63 ng/mL and 105 ng/mL
- Anatabine Concentration in rat plasma (male, 270 min, individual animals 3A-3D): 364 ng/mL and 309 ng/mL
- Anatabine Concentration in rat plasma (male, 300 min, individual animals 3A-3D): 232 ng/mL and 202 ng/mL
- Anatabine Concentration in rat plasma (male, 475 min, individual animals 3A-3D): 97 ng/mL
- Anatabine Concentration in rat plasma (male, 540 min, individual animals 3A-3D): 290 ng/mL and 173 ng/mL
- Anatabine Concentration in rat plasma (male, 600 min, individual animals 3A-3D): 173 ng/mL and 130 ng/mL and 150 ng/mL
- Anatabine Concentration in rat plasma (male, 720 min, individual animals 3A-3D): 401 ng/mL and 137 ng/mL and 71 ng/mL
- Avg. Conc. of anatabine in plasma (30 min): 160 ng/mL
- Avg. Conc. of anatabine in plasma (60 min): 129 ng/mL
- Avg. Conc. of anatabine in plasma (235 min): 44 ng/mL
- Avg. Conc. of anatabine in plasma (270 min): 316 ng/mL
- Avg. Conc. of anatabine in plasma (300 min): 234 ng/mL
- Avg. Conc. of anatabine in plasma (540 min): 386 ng/mL
- Avg. Conc. of anatabine in plasma (600 min): 325 ng/mL
- Avg. Conc. of anatabine in plasma (720 min): 208 ng/mL
- concentration at 30 min (female, 0.2 mg/kg BW, Avg. Conc. of anatabine in plasma, dose group 0.2, female, 30 min): 37 ng/mL
- concentration at 60 min (female, 0.2 mg/kg BW, Avg. Conc. of anatabine in plasma, dose group 0.2, female, 60 min): 35 ng/mL
- concentration at 235 min (female, 0.2 mg/kg BW, Avg. Conc. of anatabine in plasma, dose group 0.2, female, 235 min): 12 ng/mL
- concentration at 270 min (female, 0.2 mg/kg BW, Avg. Conc. of anatabine in plasma, dose group 0.2, female, 270 min): 26 ng/mL
- concentration at 300 min (female, 0.2 mg/kg BW, Avg. Conc. of anatabine in plasma, dose group 0.2, female, 300 min): 34 ng/mL
- concentration at 475 min (female, 0.2 mg/kg BW, Avg. Conc. of anatabine in plasma, dose group 0.2, female, 475 min): 8 ng/mL
- concentration at 540 min (female, 0.2 mg/kg BW, Avg. Conc. of anatabine in plasma, dose group 0.2, female, 540 min): 34 ng/mL
- concentration at 600 min (female, 0.2 mg/kg BW, Avg. Conc. of anatabine in plasma, dose group 0.2, female, 600 min): 28 ng/mL
- concentration at 720 min (female, 0.2 mg/kg BW, Avg. Conc. of anatabine in plasma, dose group 0.2, female, 720 min): 12 ng/mL
- concentration at 30 min (female, 0.2 mg/kg, Anatabine Concentration in rat plasma, 30 min, individual animals 2A-2D): 34 ng/mL
- concentration at 60 min (female, 0.2 mg/kg, Anatabine Concentration in rat plasma, 60 min, individual animals 2A-2D): 29 ng/mL
- concentration at 475 min (female, 0.2 mg/kg, Anatabine Concentration in rat plasma, 475 min, individual animals 2A-2D): 7 ng/mL
- concentration at 540 min (female, 0.2 mg/kg, Anatabine Concentration in rat plasma, 540 min, individual animals 2A-2D): 24 ng/mL
- concentration at 270 min (female, 2 mg/kg, Anatabine Concentration in rat plasma, 270 min, individual animals 4A-4D): 237 ng/mL
- concentration at 475 min (female, 2 mg/kg, Anatabine Concentration in rat plasma, 475 min, individual animals 4A-4D): 144 ng/mL
- concentration at 720 min (female, 2 mg/kg, Anatabine Concentration in rat plasma, 720 min, individual animals 4A-4D): 186 ng/mL
- Tmax (female, 0.6 mg/kg, female rats, after dose 1, mean, read-out: Tmax(1)): 0.63 h
- Tmax (female, 0.6 mg/kg, female rats, after dose 2, mean, read-out: Tmax(2)): 0.88 h
- Tmax (female, 0.6 mg/kg, female rats, after dose 3, mean, read-out: Tmax(3)): 1.25 h
- half-life (female, 0.6 mg/kg, female rats, after first dose, read-out: t1/2,0→4 (converted)): 2.06 h
- half-life (female, 0.6 mg/kg, female rats, read-out: t1/2, terminal (converted)): 1.8 h
- Tmax (female, 6 mg/kg, female rats, after dose 1, mean, read-out: Tmax(1)): 0.5 h
- Tmax (female, 6 mg/kg, female rats, after dose 2, mean, read-out: Tmax(2)): 0.63 h
- Tmax (female, 6 mg/kg, female rats, after dose 3, mean, read-out: Tmax(3)): 1.25 h
- half-life (female, 6 mg/kg, female rats, after first dose, read-out: t1/2,0→4 (converted)): 1.82 h
- half-life (female, 6 mg/kg, female rats, read-out: t1/2, terminal (converted)): 3.99 h
- half-life (female, both treatment groups combined, female rats, read-out: t1/2,0→4 (converted)): 1.94 h
- Cp, max, initial value (increase from) [1]: 259.8 ± 35.4 ng/mL
- Cp, max, later value (increase to) [1]: 374.8 ± 122.9 ng/mL
- Cp, min, first minimum [1]: 51.5 ± 26.0 ng/mL
- Cp, min(2), second minimum (females, 6.0 mg/kg BW group, anatabine polacrilex p.o., 6 mg/kg): 180 ± 31 ng/mL and 180.0 ± 30.7 ng/mL
- concentration at 300 min (male, 0.2 mg/kg BW, Avg. Conc. of anatabine in plasma, dose group 0.2, male, 300 min): 26 ng/mL
- concentration at 475 min (male, 0.2 mg/kg BW, Avg. Conc. of anatabine in plasma, dose group 0.2, male, 475 min): 18 ng/mL
- concentration at 540 min (male, 0.2 mg/kg BW, Avg. Conc. of anatabine in plasma, dose group 0.2, male, 540 min): 38 ng/mL
- concentration at 600 min (male, 0.2 mg/kg BW, Avg. Conc. of anatabine in plasma, dose group 0.2, male, 600 min): 29 ng/mL
- concentration at 720 min (male, 0.2 mg/kg BW, Avg. Conc. of anatabine in plasma, dose group 0.2, male, 720 min): 12 ng/mL
- concentration at 30 min (male, 0.2 mg/kg, Anatabine Concentration in rat plasma, 30 min, individual animals 1A-1D): 29 ng/mL
- concentration at 60 min (male, 0.2 mg/kg, Anatabine Concentration in rat plasma, 60 min, individual animals 1A-1D): 32 ng/mL
- concentration at 235 min (male, 0.2 mg/kg, Anatabine Concentration in rat plasma, 235 min, individual animals 1A-1D): 11 ng/mL
- concentration at 270 min (male, 0.2 mg/kg, Anatabine Concentration in rat plasma, 270 min, individual animals 1A-1D): 35 ng/mL
- concentration at 300 min (male, 0.2 mg/kg, Anatabine Concentration in rat plasma, 300 min, individual animals 1A-1D): 22 ng/mL
- concentration at 30 min (male, 0.2 mg/kg, Avg. Conc. of anatabine in plasma, dose group 0.2, male, 30 min): 33 ng/mL
- concentration at 60 min (male, 0.2 mg/kg, Avg. Conc. of anatabine in plasma, dose group 0.2, male, 60 min): 30 ng/mL
- concentration at 235 min (male, 0.2 mg/kg, Avg. Conc. of anatabine in plasma, dose group 0.2, male, 235 min): 11 ng/mL
- concentration at 270 min (male, 0.2 mg/kg, Avg. Conc. of anatabine in plasma, dose group 0.2, male, 270 min): 26 ng/mL
- concentration at 30 min (male, 2 mg/kg BW, Avg. Conc. of anatabine in plasma, dose group 2, male, 30 min): 243 ng/mL
- concentration at 235 min (male, 2 mg/kg BW, Avg. Conc. of anatabine in plasma, dose group 2, male, 235 min): 72 ng/mL
- concentration at 270 min (male, 2 mg/kg BW, Avg. Conc. of anatabine in plasma, dose group 2, male, 270 min): 303 ng/mL
- concentration at 300 min (male, 2 mg/kg BW, Avg. Conc. of anatabine in plasma, dose group 2, male, 300 min): 183 ng/mL
- concentration at 475 min (male, 2 mg/kg BW, Avg. Conc. of anatabine in plasma, dose group 2, male, 475 min): 97 ng/mL
- concentration at 540 min (male, 2 mg/kg BW, Avg. Conc. of anatabine in plasma, dose group 2, male, 540 min): 226 ng/mL
- concentration at 600 min (male, 2 mg/kg BW, Avg. Conc. of anatabine in plasma, dose group 2, male, 600 min): 151 ng/mL
- concentration at 720 min (male, 2 mg/kg BW, Avg. Conc. of anatabine in plasma, dose group 2, male, 720 min): 203 ng/mL
- concentration at 475 min (male, 2 mg/kg, Anatabine Concentration in rat plasma, 475 min, individual animals 3A-3D): 79 ng/mL
- concentration at 540 min (male, 2 mg/kg, Anatabine Concentration in rat plasma, 540 min, individual animals 3A-3D): 214 ng/mL
- Tmax (male, 0.6 mg/kg, male rats, after dose 1, mean, read-out: Tmax(1)): 0.75 h
- Tmax (male, 0.6 mg/kg, male rats, after dose 2, mean, read-out: Tmax(2)): 0.63 h
- Tmax (male, 0.6 mg/kg, male rats, after dose 3, mean, read-out: Tmax(3)): 1 h
- half-life (male, 0.6 mg/kg, male rats, after first dose, read-out: t1/2,0→4 (converted)): 2.05 h
- half-life (male, 0.6 mg/kg, male rats, read-out: t1/2, terminal (converted)): 1.78 h
- Tmax (male, 6 mg/kg, male rats, after dose 1, mean, read-out: Tmax(1)): 0.63 h
- Tmax (male, 6 mg/kg, male rats, after dose 2, mean, read-out: Tmax(2)): 0.63 h
- Tmax (male, 6 mg/kg, male rats, after dose 3, mean, read-out: Tmax(3)): 2 h
- half-life (male, 6 mg/kg, male rats, after first dose, read-out: t1/2,0→4 (converted)): 1.76 h
- half-life (male, 6 mg/kg, male rats, read-out: t1/2, terminal (converted)): 5.07 h
- half-life (male, both treatment groups combined, male rats, read-out: t1/2,0→4 (converted)): 1.92 h

— patent US20120196899A1, “METHODS AND PRODUCTS FOR TREATING INFLAMMATION” (Rock Creek Pharmaceuticals, Inc., priority 2010, published 2012)
